Experimental data: US20070213408A1, “Use of Acetyl L-Carnitine for the Preparation of a Medicine for the Treatment of Neuropathic Pain in Diabetic Patients” (SIGMA-TAU INDUSTRIE FARMACEUTICHE RIUNITE S.P.A., priority 2004, published 2007)

Tests used:
[1] = test system: Patients with type 2 diabetes not on insulin treatment; assay: Double-blind placebo-controlled clinical trials in diabetic peripheral neuropathy, VAS pain assessment, patients not on insulin; assay type: in vivo, human; conditions: for VAS: 52 weeks
Method: (§1) Two double-blind placebo-controlled clinical trials, identical in their experimental design, were conducted in patients with diagnoses of diabetic peripheral neuropathy selected according to the criteria established in the San Antonio, Tex. conference (Diabetes 37:1000-1004, 1988).
(§2) Acetyl L-carnitine was administered orally at doses of 1.5 g/day and 3.0 g/day for continuously for 52 weeks.
(§3) One objective of the studies consisted in the possible modification of the Visual Analogue Scale (VAS) (Scott J. Huskisson EC. Graphic representation of pain. Pain 1976;2:175-184) in the subjective assessment of pain symptoms and the main sensorimotor clinical parameters.

[2] = test system: Patients with type 2 diabetes on insulin treatment; assay: Double-blind placebo-controlled clinical trials in diabetic peripheral neuropathy, VAS pain assessment, patients on insulin; assay type: in vivo, human; conditions: 52 weeks
Method: as §1, §2, §3
The second population comprised patients with type 2 diabetes treated with insulin. Here, too, the population included a placebo group (Group 4) matching up to the same inclusion criteria as the patients treated with acetyl L-carnitine (on insulin treatment).

[3] = test system: type I and II diabetics with symmetrical distal polyneuropathy or multineuropathy; conditions: treated patients out of 333 recruited; cited from earlier work
[4] = test system: patients with diabetic neuropathy; conditions: 120 patients with diabetic neuropathy; cited from earlier work
[5] = test system: patients with diabetic neuropathy; conditions: approximately 200 patients with diabetic neuropathy; cited from earlier work

Question: What does the source list for `CC(=O)O[C@H](CC(=O)[O-])C[N+](C)(C)C` [Acetyl L-carnitine, acetyl L-carnitine]?
Answer: VAS ([1]; 1.5 g/day orally, n = 39 pts): 7.6 ± 34.7; VAS ([1]; 3.0 g/day orally, n = 40 pts): 24.2 ± 32.3; activity compared to the placebo group ([1]; end of treatment, active only at higher dose (3 g/day)): active in a dose-related manner; VAS ([2]; 1.5 g/die orally, n = 41 pts): 16.8 ± 30.1; VAS ([2]; 3.0 g/day orally, n = 57 pts): 25.9 ± 31.2; patients presenting an improvement in pain symptoms [3]: 39%; improvement in symptoms [4]: distinct improvement in symptoms; difference between acetyl L-carnitine and placebo [5]: failed to show any significant difference
